Reference: US20090312243A1, “TREATMENT OF INFLAMMATORY BOWEL DISEASE (IBD) WITH ANTI-ANGIOGENIC COMPOUNDS” (priority 2005, published 2009)
Entries after “also recorded” stand apart in the source; their conditions may differ.

Legend:
[1] = test system: C57BL/10 IL-10-deficient mice; experiment: IL-10-deficient mouse colitis model, disease activity index (DAI); format: in vivo; details: for effect on established colitis (disease activity index): n=12 per group
Protocol: The DAI was calculated by scoring 1 point for the appearance of each of the following: ruffled fur, occult fecal blood as determined on a Hemoccult Sensa® card (Smith Kline Diagnostics, San Jose, Calif.), rectal prolapse <1 mm, and soft stool. The mice were scored an additional point for diarrhea or severe rectal prolapse >1 mm. The mean with standard error bars of the DAI are plotted for pretreatment and then at the end of each week of treatment (n=12 per group).
The preferred, and widely used, model for testing is the IL-10-deficient (KO) mouse (on a C57BL/10 strain background). As described in the Examples, colonies of C57BL/10 IL-10 KO mice are bred and used. These mice consistently develop colitis at 10-12 weeks of age when transported from the ultra-barrier facility to conventional housing. These mice are used to test the effect of a candidate anti-angiogenic agent on pathogenesis and treatment of established disease.
Colonies of C57BL/10 IL-10-deficient mice were routinely bred at the Case Western Reserve University Animal Research Center for studies of early and late colitis. These mice consistently develop colitis at 10-12 weeks of age when transported from the ultra-barrier facility to conventional housing. These mice were used to test the effect of ATN 161 (Ac-PHSCN—NH2) on both the development and treatment of established disease.
ATN-161 had no effect on the development of colitis in this model when treatment was initiated at the time that the mice were moved to conventional housing. […] A scrambled peptide version of ATN-161 (ATN-163; Ac-HSPNC—NH2) was used as a control and had no effect on established colitis in this model. ATN-163 and vehicle controls were indistinguishable in these studies (data not shown).

[2] = test system: human colon cancer cells (HT29); details: HT29 do not express integrin α5β1; cited from earlier work
IL-12 = IL-12 production in vitro by LPMC extracts and splenocytes; format: cell-based; details: lamina propria mononuclear cell (LPMC) extracts and splenocytes
Protocol: (§1) The effect of ATN-161 on IL-6 and IL-12 expression was also evaluated in vitro using lamina propria mononuclear cell (LPMC) extracts and splenocytes.

IL-6 [3] = experiment: IL-6 in supernatants of cultured colon fragments from treated mice (ELISA); format: in vivo, mouse; details: 48 hours culture; versus ATN-163 treated controls
Protocol: (§2) FIGS. 3A and 3B are graphs showing that colon fragments from ATN-161 treated mice expressed lower levels of IL-12 and IL-6. Fragments of colon from mice treated with ATN-161 or ATN-163 were cultured in RPMI media +2% fetal bovine serum and 2.5% PSF (antibiotic-antimycotic). After 48 hours, supernatants were harvested and kept frozen at −80 C. FIG. 3A: IL-12(p40) was analyzed using an ELISA in which plates had been coated with the monoclonal antibody C15.6. FIG. 3B: IL-6 was analyzed using a commercially available ELISA kit specific for mouse IL-6 (R&D Systems, Minneapolis, Minn.).
(§3) Biopsies were also cultured in vitro and the supernatants analyzed for IL-6 and IL-12 expression as previously described (Spencer D M et al., 2002, Gastroenterology 122:94-105). IL-6 and IL-12 are inflammatory cytokines that have been correlated with the pathogenesis of colitis (Mahida Y R, 2000, Inflamm Bowel Dis 6:21-33).

tumor angiogenesis = details: cited from earlier work
[4] = test system: C57BL/10 IL-10-deficient mice; experiment: Histologic grading for colitis of colon at Week 6; format: in vivo, mouse; details: end of Week 6; ATN-161 versus ATN-163 treated group
Protocol: FIG. 2 is a graph summarizing the histologic grading for colitis at Week 6. Grading of intestinal inflammation was determined in a blinded fashion by three readers: no inflammation (0); modest numbers of infiltrating cells in the lamina propria (1); infiltration of mononuclear cells leading to separation of crypts and mild mucosal hyperplasia (2); massive infiltration with inflammatory cells accompanied by disrupted mucosal architecture, loss of goblet cells, and marked mucosal hyperplasia (3); all of the above plus crypt abscesses or ulceration (4).
Animals were euthanized at the end of Week 6 and the colon removed for histologic analysis.

cell adhesion = details: cited from earlier work
IL-6 [5] = experiment: IL-6 production in vitro by LPMC extracts and splenocytes; format: cell-based; details: lamina propria mononuclear cell (LPMC) extracts and splenocytes
Protocol: as §1

[6] = test system: C57BL/10 IL-10-deficient mice; experiment: Microvessel density in colon sections by anti-CD31 immunostaining; format: in vivo, mouse; details: zinc fixed colon sections
Protocol: FIG. 4 is a graph showing an analysis of microvessel density using anti-CD31 immunostaining. Immunostaining was performed using the mouse CD31 specific mAb MEC 13.3 (Becton-Dickinson, San Diego, Calif.). Morphometric analysis was carried out using an international consensus for the quantification of angiogenesis (Vermeulen P B et al., Eur J Cancer 32A:2474-84; Eur J Cancer 38:1564-15). In particular stained colonic sections were scanned at low power (40×) to detect the most vascularized area, after which at least 5 microphotographs at 200× magnification were taken in the mucosa and in the submucosa. The number of vessels/field (mean vascular density) was performed using Image Pro Plus Software (Media Cybernetics, Silver Spring, Md.).
Microvessel density as a measure of angiogenesis was determined in zinc fixed colon sections.

IL-12(p40) = experiment: IL-12 in supernatants of cultured colon fragments from treated mice (ELISA); format: in vivo, mouse; details: 48 hours culture; versus ATN-163 treated controls
Protocol: as §2, §3

| Substance | effect on established colitis (disease activity index) ([1]; mice with established disease) | in vivo growth of xenografted HT29 cells [2] | treatment time after which the reduction of colitis was observed ([1]; mice with established disease) | effect on the development of colitis ([1]; treatment initiated at the time the mice were moved to conventional housing) | effect on IL-12 production (IL-12) | IL-6 level in colon fragment organ culture (IL-6 [3]) | effect on efficacy of 5-fluorouracil (tumor angiogenesis; combination with 5-fluorouracil) | effect on tumor angiogenesis (tumor angiogenesis; in vivo) | histologic score [4] | effect on cell adhesion (cell adhesion) | effect on IL-6 production (IL-6 [5]) | reduction of microvessels versus ATN-163 treated controls [6] | IL-12 level in colon fragment organ culture (IL-12(p40)) |
| --- | --- | --- | --- | --- | --- | --- | --- | --- | --- | --- | --- | --- | --- |
| Ac-HSPNC—NH2 (Ac-HSPNC-NH2) [ATN-163, reference compound] | no effect | – | – | – | – | – | – | – | – | – | – | – | – |
| Ac-PHSCN—NH2 (Ac-PHSCN-NH2) [ATN-161] | consistently reduced colitis; also recorded: reduces established colitis | significantly reduced | approximately four | no effect | no effect | significantly lower levels | enhance the efficacy | inhibited tumor angiogenesis | significantly lower | does not affect cell adhesion | no effect | approximately 40% | significantly lower levels |
